Data taken from PubChem BioAssay (NCI).
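Tested at 5 concentrations; 48 h exposure; 96-well plates; endpoints linearly interpolated, else capped at highest concentration. GI50: concentration for 50% inhibition of growth. TGI: total growth inhibition.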

Experiments:
Assay in all cases: DTP human tumour cell line panel, 48 h
[1] = system: UACC-62 melanoma
[2] = system: DU-145 prostate
[3] = system: SF-539 CNS
[4] = system: HCC-2998 colon
[5] = system: ACHN renal
[6] = system: HT29 colon
[7] = system: HCT-116 colon
[8] = system: A549 NSCLC
[9] = system: U251 CNS
[10] = system: MDA-MB-231 breast
[11] = system: MCF7 breast
[12] = system: NCI-H522 lung
[13] = system: NCI-H23 lung
[14] = system: RPMI-8226 leukemia
[15] = system: SNB-19 CNS
[16] = system: MDA-MB-435
[17] = system: HCT-15 colon
[18] = system: SK-OV-3 ovarian
[19] = system: T-47D breast
[20] = system: BT-549 breast
[21] = system: KM12 colon
[22] = system: HOP-62 NSCLC
[23] = system: COLO 205 colon
[24] = system: IGROV1 ovarian
[25] = system: SNB-75 CNS
[26] = system: K-562 leukemia
[27] = system: HOP-92 NSCLC
[28] = system: A498 renal
[29] = system: TK-10 renal
[30] = system: OVCAR-5 ovarian
[31] = system: M14 melanoma
[32] = system: SK-MEL-28 melanoma
[33] = system: NCI-H460 lung
[34] = system: SK-MEL-2 melanoma
[35] = system: MALME-3M melanoma
[36] = system: HS 578T breast
[37] = system: SR leukemia
[38] = system: RXF 393 renal
[39] = system: OVCAR-4 ovarian
[40] = system: SW-620 colon
[41] = system: OVCAR-3 ovarian
[42] = system: HL-60(TB) leukemia
[43] = system: PC-3 prostate
[44] = system: CAKI-1 renal
[45] = system: NCI-H226 lung
[46] = system: SK-MEL-5 melanoma
[47] = system: SF-295 CNS
[48] = system: UO-31 renal
[49] = system: OVCAR-8 ovarian
[50] = system: SN12C renal
[51] = system: CCRF-CEM leukemia
[52] = system: SF-268 CNS
[53] = system: UACC-257 melanoma
[54] = system: 786-0 renal
[55] = system: MOLT-4 leukemia
[56] = system: NCI/ADR-RES ovarian
[57] = system: LOX IMVI melanoma

SMILES: CN1CCCCC1CCN1c2ccccc2Sc2ccc(Br)cc21 (centres undefined)
- GI50 [1]: 1830 nM
- TGI [1]: 4.1 µM
- GI50 [2]: 3.7 µM
- TGI [2]: 12.6 µM
- GI50 [3]: 2020 nM
- TGI [3]: 4.01 µM
- GI50 [4]: 1970 nM
- TGI [4]: 4.11 µM
- GI50 [5]: 3.54 µM
- TGI [5]: 11.9 µM
- GI50 [6]: 2510 nM
- TGI [6]: 6.92 µM
- GI50 [7]: 1880 nM
- TGI [7]: 3.67 µM
- GI50 [8]: 2710 nM
- TGI [8]: 8.19 µM
- GI50 [9]: 2130 nM
- TGI [9]: 4.66 µM
- GI50 [10]: 1800 nM
- TGI [10]: 4.18 µM
- GI50 [11]: 2060 nM
- TGI [11]: 4.27 µM
- GI50 [12]: 1730 nM
- TGI [12]: 3.49 µM
- GI50 [13]: 4.44 µM
- TGI [13]: 17.1 µM
- GI50 [14]: 2240 nM
- TGI [14]: 5.49 µM
- GI50 [15]: 2920 nM
- TGI [15]: 12.4 µM
- GI50 [16]: 1980 nM
- TGI [16]: 4.24 µM
- GI50 [17]: 3.17 µM
- TGI [17]: 10.2 µM
- GI50 [18]: 3.44 µM
- TGI [18]: 12.3 µM
- GI50 [19]: 3.61 µM
- TGI [19]: 14.4 µM
- GI50 [20]: 4.17 µM
- TGI [20]: 17.7 µM
- GI50 [21]: 2220 nM
- TGI [21]: 4.78 µM
- GI50 [22]: 5.46 µM
- TGI [22]: 22.8 µM
- GI50 [23]: 2040 nM
- TGI [23]: 4.2 µM
- GI50 [24]: 2370 nM
- TGI [24]: 6.37 µM
- GI50 [25]: 1650 nM
- TGI [25]: 5.56 µM
- GI50 [26]: 2180 nM
- TGI [26]: 5.98 µM
- GI50 [27]: 1400 nM
- TGI [27]: 4.72 µM
- GI50 [28]: 2210 nM
- TGI [28]: 7.08 µM
- GI50 [29]: 1990 nM
- TGI [29]: 5.14 µM
- GI50 [30]: 2450 nM
- TGI [30]: 7.65 µM
- GI50 [31]: 1830 nM
- TGI [31]: 3.34 µM
- GI50 [32]: 2040 nM
- TGI [32]: 4.37 µM
- GI50 [33]: 2290 nM
- TGI [33]: 5.01 µM
- GI50 [34]: 2500 nM
- TGI [34]: 5.94 µM
- GI50 [35]: 2080 nM
- TGI [35]: 4 µM
- GI50 [36]: 2060 nM
- TGI [36]: 5.85 µM
- GI50 [37]: 3.12 µM
- TGI [37]: 8.24 µM
- GI50 [38]: 2180 nM
- TGI [38]: 6.46 µM
- GI50 [39]: 3.6 µM
- TGI [39]: 13.6 µM
- GI50 [40]: 2080 nM
- TGI [40]: 5.04 µM
- GI50 [41]: 3.36 µM
- TGI [41]: 11.7 µM
- GI50 [42]: 2060 nM
- TGI [42]: 4.65 µM
- GI50 [43]: 2810 nM
- TGI [43]: 8.76 µM
- GI50 [44]: 2970 nM
- TGI [44]: 10.9 µM
- GI50 [45]: 11.8 µM
- TGI [45]: 28.8 µM
- GI50 [46]: 1780 nM
- TGI [46]: 3.47 µM
- GI50 [47]: 2130 nM
- TGI [47]: 4.94 µM
- GI50 [48]: 2680 nM
- TGI [48]: 10.8 µM
- GI50 [49]: 2110 nM
- TGI [49]: 4.47 µM
- GI50 [50]: 3.23 µM
- TGI [50]: 11.9 µM
- GI50 [51]: 2770 nM
- TGI [51]: 10.1 µM
- GI50 [52]: 2440 nM
- TGI [52]: 6.61 µM
- GI50 [53]: 1910 nM
- TGI [53]: 3.55 µM
- GI50 [54]: 2140 nM
- TGI [54]: 4.79 µM
- GI50 [55]: 2830 nM
- TGI [55]: 7.83 µM
- GI50 [56]: 1980 nM
- TGI [56]: 4.13 µM
- GI50 [57]: 1990 nM
- TGI [57]: 3.91 µM
